The subject of experiment [1] is Gloeophyllum trabeum (ATCC 11539). The experiment can be described thus: AWPA E10-01 laboratory soil-block culture decay test of treated southern pine blocks. The class given is cell-based. The note with it: for Mean percent weight loss (s.d. in parentheses), G. trabeum: unleached southern pine blocks, 12 weeks, n = 5. As to the method:
(§1) The decay resistance of southern pine treated with six experimental wood preservative formulations and exposed to two brown rot fungal species were tested using the AWPA E10-01 “Standard Method of Testing Wood Preservatives by Laboratory Soil-Block Cultures.” For this, conditioned blocks of wood are treated with suitable solutions of preservative. After a conditioning period, the wood blocks are exposed to a recognized destructive species of wood-destroying fungi. The minimum amount of preservative that protects the wood blocks against decay by a given fungus is defined as the threshold retention for that organism. Failure to protect is evidenced by loss of mass from the treated wood blocks, as indicated by a loss of weight.
(§2) Preparation of wood. Southern pine sapwood (Pinus spp.) with 6-10 rings/inch and clear of knots or other obvious defects was used. The wood was milled into test blocks of 19 mm×19 mm×19 mm. The test cubes were divided into density groups of ±5%, with 5 blocks per treatment or control. One feeder strip is needed for each block in a culture bottle. The sapwood selected for feeder strips should be capable of furnishing a satisfactory growth of the test fungus. Southern pine sapwood feeder strips were cut to approximately 3 by 28 by 34 mm with the grain of the wood parallel to either of the long dimensions and with the edge grain (radial surface) exposed to the flat face, insofar as possible.
(§3) The test blocks were pressure treated with the test preservatives, solvent alone, or two control wood preservatives, ACQ-Type D and propiconazole […] according to procedures detailed in AWPA Standard E7-01. Several of the compounds detailed in Table 1 are commercially available from Novus International, Saint Louis, Mo. (i.e., the composition abbreviated Biox AUSD is a blend of organic acid, inorganic acid and HMTBA and is sold under the trade name ACTIVATE® US WD; the compound abbreviated Biox C is HMBTA-Cu and is sold under the trade name MINTREX® Cu; the compound Biox C/Biox SE is a blend of ethoxyquin and HMTBA-Cu; the compound abbreviated Biox SE is ethoxyquin emulsion; the compound abbreviated Biox T is an antioxidant blend sold under the trade name TOXGUARD®, and the compound abbreviated Biox Z is HMTBA-Zn is sold under the trade name MINTREX® Zn).
(§4) Briefly, a full cell pressure process, simulating commercial practice as far as possible with laboratory plant equipment, using an initial vacuum, suitable temperature, and an appropriate pressure period was used. The amount of preservative absorbed by the block, i.e., the retention, was calculated for each preservative. After the test blocks were treated and weighed to obtain absorption, they were exposed to open laboratory conditions until the solvent evaporated and the moisture content was relatively stable. Then they were placed in a conditioning room for 21 days. The blocks were tested in the unleached condition.
(§5) Preparation of soil culture bottles. A soil substrate with a water holding capacity between 20% and 40% and a pH between 5.0 and 8.0 was used. The soil substrate, sifted and lightly compacted by tapping, was placed in 8-oz cylindrical culture bottles fitted with screw caps without liners. The bottles were about half-full. This amount of soil, about 118 ml for an 8-oz. culture bottle, weighed not less than 90 g when oven-dried. […] The soil was leveled and one feeder strip per block was placed in each bottle. The soil-filled bottles were autoclaved for 30 min (one time), with the caps loosened. Lids on jars with a breather hole were covered with a strip of cloth first-aid tape.
(§6) Preparation of test cultures. […] Sections (e.g., 10 mm squares) were cut from near the leading edge of mycelium in petri dish cultures and placed in contact with an edge of a feeder strip on the soil of the culture bottles.

In experiment [2] the test system is Postia placenta (Madison 698). Described as above. It counts as cell-based. Conditions: for Mean percent weight loss (s.d. in parentheses), P. placenta: unleached southern pine blocks, 12 weeks, n = 5. As to the method:
as §1, §2, §3, §4, §5, §6

Where [3] appears, read: over all Biox C retentions, ethanolamine retention 36 kg/m^3, no observable dose response.

For `CSCCC(O)C(=O)[O-].CSCCC(O)C(=O)[O-].[Cu+2]` (centres unmarked) [Biox C, copper bis(2-hydroxy-4-methylthio)butanoic acid], the “weight losses, G. trabeum” value in experiment [1] (setting [3]) is recorded as “approximately 6.5%”. Besides, the “Mean percent weight loss (s.d. in parentheses), G. trabeum” value (“Mean percent weight loss … G. trabeum” below) in experiment [1] (retention 0.05 kg/m^3) is 5.5 (0.7) %; in experiment [1] (retention 0.10 kg/m^3), 6.9 (1.8) %; in experiment [1] (retention 0.50 kg/m^3), 6.1 (0.7) %; in experiment [1] (retention 2.00 kg/m^3), 10.2 (5.3) %. Further, the “weight losses, P. placenta” value in experiment [2] (setting [3]) was around 5.0%. Also, the “Mean percent weight loss (s.d. in parentheses), P. placenta” value (shortened to “Mean percent weight loss … P. placenta”) in experiment [2] (retention 0.05 kg/m^3) was 4.5 (0.8) %; in experiment [2] (retention 0.10 kg/m^3), 5.0 (1.0) %; in experiment [2] (retention 0.50 kg/m^3), 6.1 (0.4) %; in experiment [2] (retention 2.00 kg/m^3), 5.1 (0.7) %.
Consider `CSCCC(O)C(=O)[O-].CSCCC(O)C(=O)[O-].[Zn+2]` (centres unmarked) [Biox Z], for which the “Mean percent weight loss … G. trabeum” value is recorded as 38.8 (3.3) % in experiment [1] (retention 0.05 kg/m^3), 26.4 (8.5) % in experiment [1] (retention 0.10 kg/m^3), 28.9 (15.2) % in experiment [1] (retention 0.50 kg/m^3) and 27.8 (6.1) % in experiment [1] (retention 2.00 kg/m^3). For the same compound, the “Mean percent weight loss … P. placenta” value is reported as 50.4 (2.9) % in experiment [2] (retention 0.05 kg/m^3), 47.7 (5.1) % in experiment [2] (retention 0.10 kg/m^3), 42.6 (23.8) % in experiment [2] (retention 0.50 kg/m^3) and 26.1 (23.2) % in experiment [2] (retention 2.00 kg/m^3).
With `CC(C)(C)C(O)(CCc1ccc(Cl)cc1)Cn1cncn1` (centres unmarked) [Tebuconazole, reference compound], the “Mean percent weight loss … G. trabeum” value in experiment [1] (retention 0.010 kg/m^3) is on record as 15.5 (3.7) %; in experiment [1] (retention 0.025 kg/m^3), 11.8 (8.3) %; in experiment [1] (retention 0.05 kg/m^3) it was 3.2 (1.3) %; in experiment [1] (retention 0.10 kg/m^3), 1.0 (0.4) %. Also, the “Mean percent weight loss … P. placenta” value in experiment [2] (retention 0.010 kg/m^3) is on record as 24.9 (21.8) %; in experiment [2] (retention 0.025 kg/m^3) it was 22.4 (17.4) %; in experiment [2] (retention 0.05 kg/m^3), 15.5 (13.6) %; in experiment [2] (retention 0.10 kg/m^3), 2.8 (3.1) %.

The values above are taken from patent US20070227399A1, “COMPOSITIONS AND METHODS FOR THE PRESERVATION OF WOOD” (Novus International Inc., priority 2006, published 2007).
